Patent US20250326757A1, “SOLID FORMS OF HETEROCYCLYLAMIDES AS IRAK4 INHIBITORS” (AstraZeneca AB, priority 2022, published 2025)

Assays:
[1] = type: physicochemical
Description: Amorphous Compound (I) (20 mg) was suspended in 2-propanol (800 μL) and stirred at room temperature for 2 weeks. The resultant solid was collected by filtration.

[2] = type: physicochemical; conditions: 70° C., low (11%) and high (75%) relative humidity, 21 days
Description: The physical and chemical stability of N-(Imidazo[1,2-b]pyridazin-3-yl)-6-methoxy-2-((1r,4r)-4-(N-methylacetamido)cyclohexyl)-2H-indazole-5-carboxamide Form A was further assessed under stressed conditions (elevated temperature (70° C.) at low (11%) and high (75%) relative humidity) over a period of 21 days according to standard protocols. Briefly, samples of Form A material were weighed into sample vials, the sample vials were placed in separate jars each containing a MadgeTech temperature and humidity logger and, in a separate vial, a saturated solution of either lithium chloride (to give 11% relative humidity) or sodium chloride (to give 75% relative humidity). The two jars (low/high humidity) were then sealed and placed in a calibrated oven at a temperature of 70° C. for a period of 21 days. Control samples were maintained in sealed vials in a refrigerator for the duration of the study.
Furthermore, XRPD confirmed that the physical form of the material over the course of the study was unchanged. It could thus be concluded that no chemical degradation of the samples or change in their physical form occurred on storage under stressed conditions. Accordingly, the suitability of N-(Imidazo[1,2-b]pyridazin-3-yl)-6-methoxy-2-((1r,4r)-4-(N-methylacetamido)cyclohexyl)-2H-indazole-5-carboxamide Form A for further development in pharmaceutical formulations was established.

- Stability to prolonged storage under accelerated ageing conditions [1]: stable
- Physical form by XRPD over the course of the study [2]: unchanged
SMILES: COc1cc2nn([C@H]3CC[C@H](N(C)C(C)=O)CC3)cc2cc1C(=O)Nc1cnc2cccnn12 [Form A, N-(Imidazo[1,2-b]pyridazin-3-yl)-6-methoxy-2-((1r,4r)-4-(N-methylacetamido)cyclohexyl)-2H-indazole-5-carboxamide Form A]
